In patent US4705797A, “N-(3,3-diphenylpropyl) aminoethyl esters of 1,4-dihydro-2,6-dimethyl-pyridine-3,5-dicarboxylic acid, compositions and use” (Recordati S.A., Chemical and Pharmaceutical Company, priority 1984, dated 1987):
Like-named read-outs stand apart in the source and are kept apart here.

Experiments:
[1] = test system: mouse; assay: LD50 determined in the mouse, i.p. and per os (Weil method); format: in vivo; settings: for LD50 os: per os
Protocol: (§1) The LD50 of the compounds according to the invention was determined in the mouse, both i.p. and per os, according to the method described by C. S. Weil [Biometrics, 8, 249 (1952)].

[2] = test system: hypertensive rats (SHR); assay: Antihypertensive activity in male hypertensive rats (SHR), systolic blood pressure by indirect tail-cuff method; format: in vivo, rat (SHR, Wister-Kyoto strain); settings: 0.5% methylcellulose, systolic blood pressure measured 1, 3, 5 and 7 hours after administration; for ED25 SHR os (antihypertensive activity): oral; for ED25: Rattus norvegicus, po, read-out: ED25 SHR os (antihypertensive activity)
Protocol: The antihypertensive activity of the diesters according to the invention was evaluated in male hypertensive rats (SHR, Wister-Kyoto strain, 15-25 weeks old). The determination of blood pressure was performed by an indirect method [M. Gerald et al., Arzneim. Forsch., 18, 1825 (1968)]. The animals were prewarmed in a heating chamber at a temperature of from 35° C. to 37° C. for a period of 15 minutes before pressure determination. The compounds tested by oral route were dissolved or suspended in a 0.5% methylcellulose solution. Controls were given only the vehicle. Systolic blood pressure and heart rate were measured 1, 3, 5 and 7 hours after drug administration by means of a tail-cuff and a pulse transducer.

[3] = LD50 determined in the mouse, i.p. and per os (Weil method); format: in vivo; settings: in vivo
Protocol: as §1

[4] = test system: methacholine induced coronary spasm; assay: Coronary dilating activity: antagonism of methacholine induced coronary spasm in anesthetized normotensive rats; format: in vivo; settings: Rattus norvegicus, iv, i.v. infusion in water:dimethylformamide 9:1, normalization of ECG during methacholine infusion
Protocol: Coronary dilating activity was evaluated in anesthetized normotensive rats (weighing about 500 g), as the ability to antagonize methacholine induced coronary spasm. Rats were instrumented for methacholine infusion into the coronary ostium, while spastic activity was detected as ST segment elevation in D2 ECG recording [K. Sakai et al., J. Pharm. Meth., 5, 325 (1981)].
The compounds tested by i.v. infusion were dissolved in water: dimethylformamide (9:1 by volume). Activity was detected as normalization of ECG tracing after compounds administration during methacholine infusion.

| SMILES | LD50 i.p. [1] [mg/kg] | LD50 os [1] [mg/kg] | ED25 SHR os (antihypertensive activity) [2] [mg/kg] | LD50 ([3]; ip, read-out: LD50 i.p.) [mg/kg] | LD50 ([3]; po, per os, read-out: LD50 os) [mg/kg] | ED25 [2] [mg/kg] | ED50 [4] [mg/kg] |
| --- | --- | --- | --- | --- | --- | --- | --- |
| CC1=C(C(=O)OCCN(C)CCC(c2ccccc2)c2ccccc2)C(c2cccc([N+](=O)[O-])c2)C(C(=O)OCC(C)C)=C(C)N1 (stereo not drawn) [compound 2329, isobutyl N-(3,3-diphenylpropyl)-N-methyl-2-aminoethyl 1,4-dihydro-2,6-dimethyl-4-(3-nitrophenyl)-pyridine-3,5-dicarboxylate] | 63 | 401 | 3.4 |  |  |  |  |
| COC(=O)C1=C(C)NC(C)=C(C(=O)OCCNCCC(c2ccccc2)c2ccccc2)C1c1cccc([N+](=O)[O-])c1 (stereo not drawn) [compound 2279, methyl N-(3,3-diphenylpropyl)-2-amino-ethyl 1,4-dihydro-2,6-dimethyl-4-(3-nitrophenyl)-pyridine-3,5-dicarboxylate] |  |  |  | 121 | 279 | 7.3 | 0.297 |
| COC(=O)C1=C(C)NC(C)=C(C(=O)OCCCCN(C)CCC(c2ccccc2)c2ccccc2)C1c1cccc([N+](=O)[O-])c1 (stereo not drawn) [compound 2361, methyl N-(3,3-diphenylpropyl)-N-methyl-4-aminobutyl 1,4-dihydro-2,6-dimethyl-4-(3-nitrophenyl)-pyridine-3,5-dicarboxylate] |  |  |  | 99 | 493 | 7.2 |  |
| COC(=O)C1=C(C)NC(C)=C(C(=O)OCCCN(C)CCC(c2ccccc2)c2ccccc2)C1c1cccc([N+](=O)[O-])c1 (stereo not drawn) [compound 2263, methyl N-(3,3-diphenylpropyl)-N-methyl-3-aminopropyl 1,4-dihydro-2,6-dimethyl-4-(3-nitrophenyl)-pyridine-3,5-dicarboxylate] |  |  |  | 171 | 254 | 3.4 | 0.197 |
| COC(=O)C1=C(C)NC(C)=C(C(=O)OC(C)CN(C)CCC(c2ccccc2)c2ccccc2)C1c1cccc([N+](=O)[O-])c1 (stereo not drawn) [compound 2288, methyl 1, N-dimethyl-N-(3,3-diphenylpropyl)-2-aminoethyl 1,4-dihydro-2,6-dimethyl-4-(3-nitrophenyl)-pyridine-3,5-dicarboxylate] |  |  |  | 72 | 197 | 1.5 | 0.046 |
| CC1=C(C(=O)OCC(C)C)C(c2cccc(Cl)c2Cl)C(C(=O)OC(C)CN(C)CCC(c2ccccc2)c2ccccc2)=C(C)N1 (stereo not drawn) [compound 2383, isobutyl 1,N-dimethyl-N-(3,3-diphenylpropyl)-2-aminoethyl 1,4-dihydro-2,6-dimethyl-4-(2,3-dichlorophenyl)-pyridine-3,5-dicarboxylate] |  |  |  |  | 500 | 3.4 |  |
| CC1=C(C(=O)OCCN(C)CCC(c2ccccc2)c2ccccc2)C(c2cccc([N+](=O)[O-])c2)C(C(=O)OC(C)C)=C(C)N1 (stereo not drawn) [compound 2350, isopropyl N-(3,3-diphenylpropyl)-N-methyl-2-aminoethyl 1,4-dihydro-2,6-dimethyl-4-(3-nitrophenyl)-pyridine-3,5-dicarboxylate] |  |  |  | 50 | 116 | 3 |  |
| CC1=C(C(=O)OCCN(C)CCC(c2ccccc2)c2ccccc2)C(c2cccc([N+](=O)[O-])c2)C(C(=O)OCC(C)C)=C(C)N1 (stereo not drawn) [compound 2352, isobutyl N-(3,3-diphenylpropyl)-N-methyl-2-aminoethyl 1,4-dihydro-2,6-dimethyl-4-(3-nitrophenyl)-pyridine-3,5-dicarboxylate] | 222 | 2195 | 6.9 |  |  |  |  |
| COC(=O)C1=C(C)NC(C)=C(C(=O)OC(C)(C)CN(C)CCC(c2ccccc2)c2ccccc2)C1c1cccc([N+](=O)[O-])c1 (stereo not drawn) [compound 2375, methyl 1,1,N-trimethyl-N-(3,3-diphenylpropyl)-2-aminoethyl 1,4-dihydro-2,6-dimethyl-4-(3-nitrophenyl)-pyridine-3,5-dicarboxylate] |  |  |  | 83 | 657 | 2.6 | 0.082 |
